Results taken from patent US10457710B2, “Antimicrobial peptides, their variants and uses” (priority 2015, dated 2019).
Where a SMILES comes first, the peptide text is derived from it. [ ]: non-standard residue; d: D form.

Assays:
Assay type in all cases: cell-based
[1] = system: clinical strains of Serratia marcescens; assay: MIC, microdilution, clinical strains; conditions: 0.02% BSA, 0.2% acetic acid
Summary of the method: (§1)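 Overnight MH agar colonies were suspended in MH broth to 5.0×10^5 cfu/ml, mixed with serial peptide dilutions (0.125–128 μg/ml) and incubated at 37° C for 20 to 24 hours. Yeast MICs were run the same way in potato dextrose broth, and wells were scored visually.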

[2] = system: clinical strains of S. aureus; assay: MIC, microdilution, clinical strains; conditions: 0.02% BSA, 0.2% acetic acid
Summary of the method: as §1

[3] = system: clinical strains of E. cloacae; assay: MIC, microdilution, clinical strains; conditions: 0.02% BSA, 0.2% acetic acid
Summary of the method: as §1

[4] = system: clinical strains of S. pneumoniae; assay: MIC, microdilution, clinical strains; conditions: 0.02% BSA, 0.2% acetic acid
Summary of the method: as §1

[5] = system: clinical strains of E. coli; assay: MIC, microdilution, clinical strains; conditions: microdilution, Muller Hinton broth-cation adjusted, 0.02% BSA, 0.2% acetic acid
Summary of the method: as §1

[6] = system: clinical strains of Proteus mirabilis; assay: MIC, microdilution, clinical strains; conditions: 0.02% BSA, 0.2% acetic acid
Summary of the method: as §1

[7] = system: clinical strains of K. pneumoniae; assay: MIC, microdilution, clinical strains; conditions: 0.02% BSA, 0.2% acetic acid
Summary of the method: as §1

[8] = system: clinical strains of P. aeruginosa; assay: MIC, microdilution, clinical strains; conditions: 0.02% BSA, 0.2% acetic acid
Summary of the method: as §1

[9] = system: Candida albicans; assay: MIC, clinical yeast strains; conditions: D-form peptide, concentrations tested 0.125 to 128 μg/ml
Summary of the method: (§2)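 Visual growth inhibition defined the MIC in a microdilution assay where fungal strains were cultured in potato dextrose broth instead of MH broth. Cell density was set to 5.0×10^5 cfu/ml, and incubation lasted 20–24 h at 37° C across a 0.125–128 μg/ml series.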

[10] = system: C. parapsilosis; assay: MIC, clinical yeast strains; conditions: D-form peptide, concentrations tested 0.125 to 128 μg/ml
Summary of the method: as §2

[11] = system: C. glabrata; assay: MIC, clinical yeast strains; conditions: D-form peptide, concentrations tested 0.125 to 128 μg/ml
Summary of the method: as §2

[12] = system: C. quillermondiae; assay: MIC, clinical yeast strains; conditions: clinical yeast strain 1; D-form peptide; concentrations tested 0.125 to 128 μg/ml
Summary of the method: as §2

[13] = system: clinical strains of Acinetobacter baumannii; assay: MIC, microdilution, clinical strains; set-up: unit: μg/ml; conditions: 0.02% BSA, 0.2% acetic acid
Procedure: Minimum inhibition concetrations (MICs) were determined against Escherichia coli (ATCC 25922), Staphylococcus aureus (ATCC 25923), Klebsiella pneumoniae (ATCC 10031) and Pseudomonas aeruginosa (ATCC 27853). Also clinical strains of E. coli, K. pneumoniae, E. cloacae, P. aeruginosa, Serratia marcescens, Proteus mirabilis, S. pneumoniae, Acinetobacter baumannii, A. johnsonii and S. aureus were used for MICs assays. Additionally, clinical strains of yeast including Candida albicans, C. glabrata, C. parapsilosis and C. quillermondiae were used. The susceptibility of these microorganisms to Chain peptides were determined using micro broth dilution assay. Colonies of the respective microorganism from Muller Hinton (MH) agar plates incubated overnight were suspended in MH broth media and final concentration of microorganism was adjusted to 5.0×10^5 cfu/ml. An aliquot of 10 μl of each Chain peptide, or gentamicin, tetracycline as reference antibiotics were added in differing concentrations along with 90 μl of bacterial suspension to 96 well polypropylene plates and incubated at 37° C. for 20 to 24 hours. Concentrations of Chain peptides and reference antibiotics ranged from 0.125 to 128 μg/ml and the MICs were recorded as the lowest concentration with no visual growth of bacteria. Similarly, antifungal MICs were tested in Potato dextrose broth.
Clinical strains of yeasts including Candida albicans, C. glabrata, C. parapsilosis and C. quillermondiae were also tested with the 12 Chain peptides. The minimum inhibitory concentration (MICs) varied between these peptides and are presented in Tables 4a, 4b, 4c and 5a, 5b, 5c. Peptides Chain 105, 201 and 308 are broad spectrum antimicrobials with MICs between 0.5-32 μg/ml against all the bacteria and yeasts tested, except Serratia marcescens and Proteus mirabilis, against which the MICs were between 64-128 μg/ml. Peptide Chain 306 has narrow spectrum activity against E. coli at 1 μg/ml and for the rest of the bacterial strains at >32 μg/ml (FIG. 10c).

CC[C@@H](C)[C@@H](NC(=O)[C@@H](Cc1c[nH]c2ccccc12)NC(=O)[C@H](N)CCCCN)C(=O)N[C@@H](C(=O)N[C@H](Cc1c[nH]c2ccccc12)C(=O)N[C@H](CCCNC(=N)N)C(=O)N[C@H](Cc1c[nH]c2ccccc12)C(=O)N[C@H](CCCNC(=N)N)C(=O)N[C@H](Cc1ccccc1)C(=O)N[C@H](CCCCN)C(=O)N[C@H](CCCNC(=N)N)C(=O)O)C(C)C [Chain201D] (H-[dK][dW][dI][dV][dW][dR][dW][dR][dF][dK][dR]-OH) showed a Minimum inhibitory concentration ([1]; Serratia marcescens strain 1, Muller Hinton broth-cation adjusted) of 64, a Minimum inhibitory concentration ([1]; Serratia marcescens strain 2, Muller Hinton broth-cation adjusted) of 64 and a Minimum inhibitory concentration ([1]; Serratia marcescens strain 3, Muller Hinton broth-cation adjusted) of 64. For the same compound, the Minimum inhibitory concentration ([1]; Serratia marcescens strain 4, Muller Hinton broth-cation adjusted) was 64, the Minimum inhibitory concentration ([1]; Serratia marcescens strain 5, Muller Hinton broth-cation adjusted) was 128 and the Minimum inhibitory concentration ([2]; Staphylococcus aureus strain 1, Muller Hinton broth-cation adjusted) was 1. It also gave a Minimum inhibitory concentration ([2]; Staphylococcus aureus strain 2, Muller Hinton broth-cation adjusted) of 1, a Minimum inhibitory concentration ([2]; Staphylococcus aureus strain 3, Muller Hinton broth-cation adjusted) of 1 and a Minimum inhibitory concentration ([2]; Staphylococcus aureus strain 4, Muller Hinton broth-cation adjusted) of 1. The Minimum inhibitory concentration ([2]; Staphylococcus aureus strain 5, Muller Hinton broth-cation adjusted) was 1, the Minimum inhibitory concentration ([3]; Enterobacter cloacae strain 1, Muller Hinton broth-cation adjusted) was 1 and the Minimum inhibitory concentration ([3]; Enterobacter cloacae strain 2, Muller Hinton broth-cation adjusted) was 2. For the same compound, the Minimum inhibitory concentration ([3]; Enterobacter cloacae strain 3, Muller Hinton broth-cation adjusted) was 2, the Minimum inhibitory concentration ([3]; Enterobacter cloacae strain 4, Muller Hinton broth-cation adjusted) was 2 and the Minimum inhibitory concentration ([3]; Enterobacter cloacae strain 5, Muller Hinton broth-cation adjusted) was 1. For the same compound, the Minimum inhibitory concentration ([4]; Streptococcus pneumoniae strain 1, Muller Hinton broth-cation adjusted) was 8, the Minimum inhibitory concentration ([4]; Streptococcus pneumoniae strain 2, Muller Hinton broth-cation adjusted) was 4 and the Minimum inhibitory concentration ([4]; Streptococcus pneumoniae strain 3, Muller Hinton broth-cation adjusted) was 2. It also gave a Minimum inhibitory concentration ([4]; Streptococcus pneumoniae strain 4, Muller Hinton broth-cation adjusted) of 4, a Minimum inhibitory concentration ([4]; Streptococcus pneumoniae strain 5, Muller Hinton broth-cation adjusted) of 4 and a Minimum inhibitory concentration ([5]; Escherichia coli strain 1) of 16. It also gave a Minimum inhibitory concentration ([5]; Escherichia coli strain 2) of 1, a Minimum inhibitory concentration ([5]; Escherichia coli strain 3) of 1 and a Minimum inhibitory concentration ([5]; Escherichia coli strain 4) of 1. The Minimum inhibitory concentration ([5]; Escherichia coli strain 5) was 1, the Minimum inhibitory concentration ([6]; Proteus mirabilis strain 1, Muller Hinton broth-cation adjusted) was >128 and the Minimum inhibitory concentration ([6]; Proteus mirabilis strain 2, Muller Hinton broth-cation adjusted) was 32. The Minimum inhibitory concentration ([6]; Proteus mirabilis strain 3, Muller Hinton broth-cation adjusted) was 64, the Minimum inhibitory concentration ([6]; Proteus mirabilis strain 4, Muller Hinton broth-cation adjusted) was >128 and the Minimum inhibitory concentration ([6]; Proteus mirabilis strain 5, Muller Hinton broth-cation adjusted) was >128. For the same compound, the Minimum inhibitory concentration ([7]; Klebsiella pneumoniae strain 1, Muller Hinton broth-cation adjusted) was 2, the Minimum inhibitory concentration ([7]; Klebsiella pneumoniae strain 2, Muller Hinton broth-cation adjusted) was 2 and the Minimum inhibitory concentration ([7]; Klebsiella pneumoniae strain 3, Muller Hinton broth-cation adjusted) was 4. The Minimum inhibitory concentration ([7]; Klebsiella pneumoniae strain 4, Muller Hinton broth-cation adjusted) was 4, the Minimum inhibitory concentration ([7]; Klebsiella pneumoniae strain 5, Muller Hinton broth-cation adjusted) was 2 and the Minimum inhibitory concentration ([8]; Pseudomonas aeruginosa strain 1, Muller Hinton broth-cation adjusted) was 4. It also gave a Minimum inhibitory concentration ([8]; Pseudomonas aeruginosa strain 2, Muller Hinton broth-cation adjusted) of 4, a Minimum inhibitory concentration ([8]; Pseudomonas aeruginosa strain 3, Muller Hinton broth-cation adjusted) of 4 and a Minimum inhibitory concentration ([8]; Pseudomonas aeruginosa strain 4, Muller Hinton broth-cation adjusted) of 2. For the same compound, the Minimum inhibitory concentration ([8]; Pseudomonas aeruginosa strain 5, Muller Hinton broth-cation adjusted) was 2, the “Minimum inhibitory concentration, Candida albicans strain 1” value ([9]; clinical yeast strain 1) was 16 and the “Minimum inhibitory concentration, Candida albicans strain 2” value ([9]; clinical yeast strain 2) was 8. The “Minimum inhibitory concentration, Candida albicans strain 3” value ([9]; clinical yeast strain 3) was 8, the “Minimum inhibitory concentration, Candida albicans strain 4” value ([9]; clinical yeast strain 4) was 16 and the “Minimum inhibitory concentration, Candida albicans strain 5” value ([9]; clinical yeast strain 5) was 8. The “Minimum inhibitory concentration, C. parapsilosis strain 1” value ([10]; clinical yeast strain 1) was 8, the “Minimum inhibitory concentration, C. parapsilosis strain 2” value ([10]; clinical yeast strain 2) was 8 and the “Minimum inhibitory concentration, C. parapsilosis strain 3” value ([10]; clinical yeast strain 3) was 8. For the same compound, the “Minimum inhibitory concentration, C. parapsilosis strain 4” value ([10]; clinical yeast strain 4) was 8, the “Minimum inhibitory concentration, C. glabrata strain 1” value ([11]; clinical yeast strain 1) was 8 and the “Minimum inhibitory concentration, C. glabrata strain 2” value ([11]; clinical yeast strain 2) was 8. The “Minimum inhibitory concentration, C. glabrata strain 3” value ([11]; clinical yeast strain 3) was 8, the “Minimum inhibitory concentration, C. glabrata strain 4” value ([11]; clinical yeast strain 4) was 64 and the “Minimum inhibitory concentration, C. quillermondiae strain 1” value [12] was 8. It also gave a Minimum inhibitory concentration ([13]; Acinetobacter baumannii strain 1, Muller Hinton broth-cation adjusted) of 4, a Minimum inhibitory concentration ([13]; Acinetobacter baumannii strain 2, Muller Hinton broth-cation adjusted) of 4 and a Minimum inhibitory concentration ([13]; Acinetobacter baumannii strain 3, Muller Hinton broth-cation adjusted) of 4. It also gave a Minimum inhibitory concentration ([13]; Acinetobacter baumannii strain 4, Muller Hinton broth-cation adjusted) of 4 and a Minimum inhibitory concentration ([13]; Acinetobacter baumannii strain 5, Muller Hinton broth-cation adjusted) of 4.
